Measurements reported in patent US9119882B2, “Volatile distillate by-product of mint oil that promotes absorption and/or bioavailability of compounds of bio-medical and nutritional interest” (Flavor Liquidating (G) Corporation (new name of A.M. Todd …, priority 2008, dated 2015).

Test system: Caco-2 cells
Assay: Pilot study: uptake of CoQ10 into Caco-2 cells
Format: in vitro ADME, human
Conditions: 1 millimolar CoQ10, two hours, control set at 100%
Experimental: An initial pilot study established that VDMO improved the uptake of CoQ10 into Caco-2 cells. Caco-2 cells were grown for 15 days in the bottom of 24-well plastic culture dishes and then were exposed to 1 millimolar concentrations of CoQ10 mixed with 5%, 1% or no VDMO. The VDMO utilized here was as analyzed in Table 3b. Cells were returned to the incubator for two hours, then cells and media were separated by centrifugation. The cellular fraction was washed and centrifuged a second time and the amount of CoQ10 inside the cells was determined by Liquid Chromatography Mass Spectrometry. The experiment was repeated twice; the absorption in the control group was set to 100% and treatments were compared accordingly; results are shown in Table 4.

Absorption (%) Experiment 1: 100 ± 6.1%
Absorption (%) Experiment 2: 100 ± 0.3%
SMILES: COC1=C(OC)C(=O)C(C/C=C(\C)CC/C=C(\C)CC/C=C(\C)CC/C=C(\C)CC/C=C(\C)CC/C=C(\C)CC/C=C(\C)CC/C=C(\C)CC/C=C(\C)CCC=C(C)C)=C(C)C1=O [CoQ10 + no VDMO; Control, Coenzyme Q10 (ubiquinone; CoQ10)]
